What is called IC50 is the concentration needed to halve the response being measured. A higher IC50 goes with a need for much substance.

Chain of PIKFYVE (Q9Y2I7 whole entry): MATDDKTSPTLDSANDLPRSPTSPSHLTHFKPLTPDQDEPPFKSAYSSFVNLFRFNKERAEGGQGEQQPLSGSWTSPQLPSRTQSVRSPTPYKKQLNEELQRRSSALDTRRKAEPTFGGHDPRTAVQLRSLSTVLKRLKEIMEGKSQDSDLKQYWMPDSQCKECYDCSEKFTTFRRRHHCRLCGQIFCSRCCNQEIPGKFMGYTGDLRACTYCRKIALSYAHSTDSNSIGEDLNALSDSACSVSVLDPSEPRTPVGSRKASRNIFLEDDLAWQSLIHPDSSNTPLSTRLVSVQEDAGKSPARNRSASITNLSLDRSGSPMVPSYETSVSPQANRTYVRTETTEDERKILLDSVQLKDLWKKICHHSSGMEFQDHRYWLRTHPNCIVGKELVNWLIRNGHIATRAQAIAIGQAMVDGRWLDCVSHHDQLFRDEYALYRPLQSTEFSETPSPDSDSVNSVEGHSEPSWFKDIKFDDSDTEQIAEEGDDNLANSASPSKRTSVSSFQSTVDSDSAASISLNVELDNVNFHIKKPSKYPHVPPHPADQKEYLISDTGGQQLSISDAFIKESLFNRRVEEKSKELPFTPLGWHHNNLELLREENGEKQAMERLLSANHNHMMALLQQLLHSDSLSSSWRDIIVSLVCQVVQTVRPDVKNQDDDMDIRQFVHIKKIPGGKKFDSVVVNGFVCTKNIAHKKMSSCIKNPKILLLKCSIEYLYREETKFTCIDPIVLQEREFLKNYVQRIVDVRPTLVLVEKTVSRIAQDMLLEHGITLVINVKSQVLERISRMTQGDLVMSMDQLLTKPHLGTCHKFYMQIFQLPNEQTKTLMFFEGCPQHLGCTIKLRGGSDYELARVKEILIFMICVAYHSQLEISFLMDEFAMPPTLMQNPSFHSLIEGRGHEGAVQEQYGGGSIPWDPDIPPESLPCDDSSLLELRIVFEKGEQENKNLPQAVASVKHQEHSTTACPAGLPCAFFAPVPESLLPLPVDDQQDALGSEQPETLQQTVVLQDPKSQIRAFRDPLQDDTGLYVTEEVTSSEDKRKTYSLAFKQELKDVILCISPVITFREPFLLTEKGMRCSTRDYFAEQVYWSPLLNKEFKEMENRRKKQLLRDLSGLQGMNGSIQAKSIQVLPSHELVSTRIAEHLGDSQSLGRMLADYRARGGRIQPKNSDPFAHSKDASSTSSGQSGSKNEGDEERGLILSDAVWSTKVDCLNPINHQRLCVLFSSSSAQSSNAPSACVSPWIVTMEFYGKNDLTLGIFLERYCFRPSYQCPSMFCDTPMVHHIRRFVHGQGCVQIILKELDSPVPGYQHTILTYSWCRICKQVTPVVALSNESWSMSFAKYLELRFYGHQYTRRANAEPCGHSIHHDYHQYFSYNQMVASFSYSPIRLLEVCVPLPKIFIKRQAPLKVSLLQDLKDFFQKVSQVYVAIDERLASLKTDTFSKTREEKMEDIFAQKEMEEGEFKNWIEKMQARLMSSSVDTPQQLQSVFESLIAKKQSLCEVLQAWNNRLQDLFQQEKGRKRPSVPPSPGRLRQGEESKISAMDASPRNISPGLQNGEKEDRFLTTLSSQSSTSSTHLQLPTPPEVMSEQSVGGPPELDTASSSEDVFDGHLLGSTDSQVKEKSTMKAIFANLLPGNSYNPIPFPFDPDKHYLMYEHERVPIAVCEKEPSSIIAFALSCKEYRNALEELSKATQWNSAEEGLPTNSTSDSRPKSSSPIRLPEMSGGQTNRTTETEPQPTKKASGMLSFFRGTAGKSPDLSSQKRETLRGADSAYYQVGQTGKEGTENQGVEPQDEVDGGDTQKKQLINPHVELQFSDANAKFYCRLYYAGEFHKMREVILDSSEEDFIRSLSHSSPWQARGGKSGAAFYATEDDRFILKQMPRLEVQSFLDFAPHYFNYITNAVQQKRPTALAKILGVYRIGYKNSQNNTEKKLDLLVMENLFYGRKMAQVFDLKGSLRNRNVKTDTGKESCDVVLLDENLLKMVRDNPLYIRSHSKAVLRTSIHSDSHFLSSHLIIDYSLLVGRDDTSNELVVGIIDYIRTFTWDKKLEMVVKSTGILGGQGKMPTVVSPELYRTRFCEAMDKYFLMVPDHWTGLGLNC

For this assay, the target named is PIKFYVE (Homo sapiens, UniProt Q9Y2I7). Description: PIKFYVE assay (luciferase ADP-Glo kinase assay, Promega). Type of assay: biochemical. As for the experimental part:
The activity of Compounds 1-20 was measured using a PIKFYVE assay (luciferase ADP-Glo kinase assay available from Promega Corp. of Madison, Wis.).
The molecule `COc1cccc(-c2ccn(-c3cc(N4CC[C@H]5OCC[C@H]54)nc(OCC4CCCO4)n3)n2)c1` (stereo partly drawn) [Compound 1, (3aR,6aR)-4-(6-(3-(3-methoxyphenyl)-1H-pyrazol-1-yl)-2-((tetrahydrofuran-2-yl)methoxy)pyrimidin-4-yl)hexahydro-2H-furo[3,2-b]pyrrole] showed an IC50 of 5 to 100 nM. Molecule `Cc1cccc(-c2csc(-c3cc(N4CC[C@H]5OCC[C@H]54)nc(OCC4CCCO4)n3)n2)c1` (stereo partly drawn) [Compound 11, (3aR,6aR)-4-(2-((tetrahydrofuran-2-yl)methoxy)-6-(4-(m-tolyl)thiazol-2-yl)pyrimidin-4-yl)hexahydro-2H-furo[3,2-b]pyrrole] showed an IC50 of 101 to 1000 nM. The same measure for `COc1cccc(-c2ccn(-c3cc(N4CC[C@H]5OCC[C@H]54)nc(OCCO)n3)n2)c1` [Compound 5, 2-((4-((3aR,6aR)-hexahydro-4H-furo[3,2-b]pyrrol-4-yl)-6-(3-(3-methoxyphenyl)-1H-pyrazol-1-yl)pyrimidin-2-yl)oxy)ethan-1-ol]: 101 to 1000 nM; for `COc1cccc(-c2ccn(-c3cc(N4CC[C@H]5OCC[C@H]54)nc(OCCc4scnc4C)n3)n2)c1` [Compound 6, (3aR,6aR)-4-(6-(3-(3-methoxyphenyl)-1H-pyrazol-1-yl)-2-(2-(4-methylthiazol-5-yl)ethoxy)pyrimidin-4-yl)hexahydro-2H-furo[3,2-b]pyrrole]: 5 to 100 nM; for `Cc1cccc(-c2ccn(-c3cc(C4CCOC4)nc(OCC4CCCO4)n3)n2)c1` (stereo not shown) [Compound 17, 2-((tetrahydrofuran-2-yl)methoxy)-4-(tetrahydrofuran-3-yl)-6-(3-(m-tolyl)-1H-pyrazol-1-yl)pyrimidine]: 5 to 100 nM. As to `COc1cccc(-c2ccn(-c3cc(N4CC[C@H]5OCC[C@H]54)nc(OCCC(O)CO)n3)n2)c1` (stereo partly drawn) [Compound 8, 4-((4-((3aR,6aR)-hexahydro-4H-furo[3,2-b]pyrrol-4-yl)-6-(3-(3-methoxyphenyl)-1H-pyrazol-1-yl)pyrimidin-2-yl)oxy)butane-1,2-diol], the IC50 lay in the range of 5 to 100 nM.

In turn, `c1ccc(-c2cn(-c3cc(N4CCOCC4)nc(OCCc4ccccn4)n3)cn2)cc1` [Compound 10, 4-(6-(4-phenyl-1H-imidazol-1-yl)-2-(2-(pyridin-2-yl)ethoxy)pyrimidin-4-yl)morpholine] had an IC50 of 1000 to 10000 nM. As for `Cc1cccc(-c2csc(-c3cc(N4CCOCC4)nc(OCC4CCCO4)n3)n2)c1` (stereo not shown) [Compound 12, 4-(2-((tetrahydrofuran-2-yl)methoxy)-6-(4-(m-tolyl)thiazol-2-yl)pyrimidin-4-yl)morpholine], the figure is 5 to 100 nM; as for `c1ccc(-c2ccn(-c3cc(N4CC[C@H]5OCC[C@H]54)nc(OCCc4ccccn4)n3)n2)cc1` [Compound 4, (3aR,6aR)-4-(6-(3-phenyl-1H-pyrazol-1-yl)-2-(2-(pyridin-2-yl)ethoxy)pyrimidin-4-yl)hexahydro-2H-furo[3,2-b]pyrrole], 101 to 1000 nM; as for `Cc1cccc(-c2ccn(-c3cc(N4CCCOCC4)nc(OCC4CCCO4)n3)n2)c1` (stereo not shown) [Compound 14, 4-(2-((tetrahydrofuran-2-yl)methoxy)-6-(3-(m-tolyl)-1H-pyrazol-1-yl)pyrimidin-4-yl)-1,4-oxazepane], 101 to 1000 nM. As for `COC1CCN(c2cc(-n3ccc(-c4cccc(C)c4)n3)nc(OCC3CCCO3)n2)C1` (stereo not shown) [Compound 15, 4-(3-methoxypyrrolidin-1-yl)-2-((tetrahydrofuran-2-yl)methoxy)-6-(3-(m-tolyl)-1H-pyrazol-1-yl)pyrimidine], the figure is 1000 to 10000 nM; as for `COc1cccc(-c2ccn(-c3cc(N4CCOCC4)nc(OCCC(O)CO)n3)n2)c1` (stereo not shown) [Compound 9, 4-((4-(3-(3-methoxyphenyl)-1H-pyrazol-1-yl)-6-morpholinopyrimidin-2-yl)oxy)butane-1,2-diol], below 5 nM; as for `COc1cccc(-c2ccn(-c3cc(N4CCOCC4)nc(OCCc4scnc4C)n3)n2)c1` [Compound 7, 4-(6-(3-(3-methoxyphenyl)-1H-pyrazol-1-yl)-2-(2-(4-methylthiazol-5-yl)ethoxy)pyrimidin-4-yl)morpholine], below 5 nM. The same measure for `Cc1cccc(-c2ccn(-c3cc(N4CCOCC4CO)nc(CCC4CCCO4)n3)n2)c1` (stereo not shown) [Compound 20, (4-(2-(2-(tetrahydrofuran-2-yl)ethyl)-6-(3-(m-tolyl)-1H-pyrazol-1-yl)pyrimidin-4-yl)morpholin-3-yl)methanol]: 5 to 100 nM; for `Cc1cccc(-c2ccn(-c3cc(N4CC[C@H]5OCC[C@H]54)nc(CCc4ncccn4)n3)n2)c1` [Compound 19]: 5 to 100 nM; for `COc1cccc(-c2ccn(-c3cc(N4CCOCC4)nc(OCC4CCCO4)n3)n2)c1` (stereo not shown) [Compound 2, 4-(6-(3-(3-methoxyphenyl)-1H-pyrazol-1-yl)-2-((tetrahydrofuran-2-yl)methoxy)pyrimidin-4-yl)morpholine]: below 5 nM.

In turn, `Cc1cccc(-n2ccc(-c3cc(N4CCOCC4)nc(OCC4CCCO4)n3)n2)c1` (stereo not shown) [Compound 13, 4-(2-((tetrahydrofuran-2-yl)methoxy)-6-(1-(m-tolyl)-1H-pyrazol-3-yl)pyrimidin-4-yl)morpholine] returned a concentration for half-maximal inhibition (IC50) of 5 to 100 nM. The molecule `COc1cccc(-c2ccn(-c3cc(N4CC[C@H]5OCC[C@H]54)nc(OCCc4ccccn4)n3)n2)c1` [Compound 16, (3aR,6aR)-4-(6-(3-(3-methoxyphenyl)-1H-pyrazol-1-yl)-2-(2-(pyridin-2-yl)ethoxy)pyrimidin-4-yl)hexahydro-2H-furo[3,2-b]pyrrole] had an IC50 of 101 to 1000 nM. The same measure for `COc1cccc(-c2ccn(-c3cc(N4CCOCC4)nc(OCCC4CCOCC4)n3)n2)c1` [Compound 3, 4-(6-(3-(3-methoxyphenyl)-1H-pyrazol-1-yl)-2-(2-(tetrahydro-2H-pyran-4-yl)ethoxy)pyrimidin-4-yl)morpholine]: below 5 nM.

The record behind these values is US20200199136A1, “PIKFYVE KINASE INHIBITORS” (ACURASTEM INC., priority 2017, published 2020).
